This note sets out measurements from ChEMBL document CHEMBL1201862, “PubChem BioAssay data set” (2004).

A word on the EC50: it is the concentration giving half of the maximal effect. As usually defined, the AC50 is the concentration giving half of the maximal activity seen. As a reminder, the IC50 is the midpoint of a concentration-inhibition curve.

The test system of assay [1] is BJ. The assay can be described thus: cytotoxicity toward BJ-TERT-LT-ST fibroblasts, dose response, cell-based, RAS-independent, luminescence (AID 1935).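 Further: BJ fibroblasts immortalized with TERT plus LT and ST oncogenes.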 As to conditions: Homo sapiens. The assay is classed as functional.
Assay [2] has as its system BJ. The assay can be described thus: cells. As to conditions: Homo sapiens. The assay is classed as functional, cell-based.
Assay [3] concerns BJ. Nature of the assay: cytotoxicity toward BJ-TERT fibroblasts, dose response, cell-based, RAS-independent, luminescence (AID 1933). Type of assay: functional. As to conditions: Homo sapiens.
The target in the next assay is CAAX prenyl protease 2 (Saccharomyces cerevisiae S288c, UniProt Q03530). The assay is classed as biochemical.
CAAX prenyl protease 2, sequence (Q03530 whole entry): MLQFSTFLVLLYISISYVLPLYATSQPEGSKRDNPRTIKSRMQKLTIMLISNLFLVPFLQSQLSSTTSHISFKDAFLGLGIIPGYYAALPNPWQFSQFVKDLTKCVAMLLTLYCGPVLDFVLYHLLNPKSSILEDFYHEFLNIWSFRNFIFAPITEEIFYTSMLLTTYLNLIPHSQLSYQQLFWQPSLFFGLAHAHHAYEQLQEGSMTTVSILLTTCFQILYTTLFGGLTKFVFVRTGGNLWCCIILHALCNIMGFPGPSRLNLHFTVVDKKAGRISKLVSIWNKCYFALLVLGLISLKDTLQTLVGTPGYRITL
A short description of assay [4]: cytotoxicity toward DRD oncogenic fibroblasts, dose response, cell-based, non-viral oncogenic, luminescence (AID 1934). Type of assay: functional. The conditions noted are these: Homo sapiens.
A short description of assay [5]: mammalian cell cytotoxicity, dose response, cytotoxicity control, plate reader, cherry-pick samples (AID 504397). The assay is classed as functional, cell-based.
A further assay addresses Mu-type opioid receptor (Homo sapiens, UniProt P35372). The assay can be described thus: SAR Analysis of Agonists of the MOR Receptor using an Image-Based Assay - Set 3. [Related pubchem assays (depositor defined):AID1777, AID1785, AID1786, AID1966, AID2133, AID2136, AID2284, AID2285, AID2352]. The assay is classed as functional.
For assay [6], the target named is Delta-type opioid receptor (Homo sapiens, UniProt P41143). The assay can be described thus: SAR Analysis of Agonists of the DOR Receptor using an Image-Based Assay - Set 3. [Related pubchem assays (depositor defined):AID1777, AID1786]. Type of assay: functional.
Delta-type opioid receptor, sequence (P41143 whole entry): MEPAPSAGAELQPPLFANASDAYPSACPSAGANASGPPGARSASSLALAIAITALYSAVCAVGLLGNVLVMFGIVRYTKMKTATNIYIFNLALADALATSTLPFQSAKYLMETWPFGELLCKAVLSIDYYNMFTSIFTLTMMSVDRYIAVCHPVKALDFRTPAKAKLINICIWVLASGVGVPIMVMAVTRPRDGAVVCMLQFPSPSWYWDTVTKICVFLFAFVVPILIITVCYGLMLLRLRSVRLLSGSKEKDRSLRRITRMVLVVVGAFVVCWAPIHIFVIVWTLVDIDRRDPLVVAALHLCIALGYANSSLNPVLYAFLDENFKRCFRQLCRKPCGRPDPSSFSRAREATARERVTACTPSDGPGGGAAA
The target of assay [7] is T1, Kappa-type opioid receptor (Homo sapiens, UniProt P41145). Nature of the assay: KOR agonist analogs, arrestin-GFP redistribution, SAR follow-up, imaging, image-based, set 3 (AID 488833). The assay is classed as functional.
T1 sequence (P41145 whole entry): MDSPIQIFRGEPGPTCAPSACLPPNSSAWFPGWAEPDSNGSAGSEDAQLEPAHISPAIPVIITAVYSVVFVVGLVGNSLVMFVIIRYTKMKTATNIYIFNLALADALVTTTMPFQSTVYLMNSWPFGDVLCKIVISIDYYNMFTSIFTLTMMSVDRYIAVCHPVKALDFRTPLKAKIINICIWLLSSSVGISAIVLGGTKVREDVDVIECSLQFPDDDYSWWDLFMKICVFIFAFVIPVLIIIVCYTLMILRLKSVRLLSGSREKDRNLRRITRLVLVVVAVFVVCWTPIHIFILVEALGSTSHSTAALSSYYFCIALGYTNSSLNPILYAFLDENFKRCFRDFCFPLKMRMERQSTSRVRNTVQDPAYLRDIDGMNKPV
The target of assay [8] is T1, Kappa-type opioid receptor. Nature of the assay: SAR analysis of small molecule agonists of the kappa opioid receptor via a luminescent beta-arrestin assay - Set 3. [Related pubchem assays (depositor defined):AID1777, AID1785, AID1786, AID1966, AID2133, AID2136, AID2284, AID2500]. Type of assay: functional.
Assay [9] concerns the target T2, SUMO-activating enzyme (Homo sapiens, UniProt Q9UBT2). The assay can be described thus: SUMOylation inhibitor hit validation, confirmation, SUMOylation inhibitor project, biochemical, AlphaScreen (AID 2018). The assay is classed as functional.
Assay [10] addresses T2, SUMO-activating enzyme. Nature of the assay: inhibitors of in vitro SUMOylation cascade, primary screen, biochemical, HTRF, uHTS (AID 2006). The assay is classed as protein-complex assay. In general terms: TR-FRET usually uses a lanthanide donor and a delayed reading to cut background.
In assay [11] the target is T3, Ubiquitin-conjugating enzyme E2 N (Homo sapiens, UniProt P61088).
T3 sequence (P61088 whole entry): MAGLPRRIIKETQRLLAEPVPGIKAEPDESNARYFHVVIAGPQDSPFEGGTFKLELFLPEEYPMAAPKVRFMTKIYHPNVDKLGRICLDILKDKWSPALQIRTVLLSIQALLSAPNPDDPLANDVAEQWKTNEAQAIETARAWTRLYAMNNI
The assay is classed as functional.

A short description of assay [12]: microbe, parasite or virus in culture. Type of assay: functional. As to conditions: Mycobacterium tuberculosis.
For assay [13], the target named is T3, Ubiquitin-conjugating enzyme E2 N. Type of assay: functional. The source holds these as a separate data set.
A short description of assay [14]: Luminescence Cell-Based Dose Retest to Confirm Inhibitors of Cancer Stem Cells. [Related pubchem assays (depositor defined):AID2717, AID2721]. As to conditions: Homo sapiens. Type of assay: functional.
The target in another assay is T4, Bcl-2-related protein A1 (Mus musculus, UniProt Q07440).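 Further: confirmatory dose–response counterscreen on Bfl-1, used to check hits from a UBC13 polyubiquitin inhibitor campaign.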
T4 sequence (Q07440 whole entry): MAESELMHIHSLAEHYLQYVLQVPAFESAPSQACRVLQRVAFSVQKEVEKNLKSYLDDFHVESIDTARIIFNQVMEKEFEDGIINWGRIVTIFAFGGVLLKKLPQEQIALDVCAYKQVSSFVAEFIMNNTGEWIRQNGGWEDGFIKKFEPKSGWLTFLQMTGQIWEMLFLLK
The assay is classed as functional.

The next assay has as its system INS1. The assay can be described thus: beta cell apoptosis inhibitors, cytokine rescue, dose response, luminescence, retest (AID 449756).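 Further: cell death triggered by IL-1 beta plus TNF-alpha plus IFN-gamma mixture; protective hits raise ATP signal compared with cytokine alone wells.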 The assay is classed as functional, cell-based. The conditions noted are these: Rattus norvegicus.

The source made the active and inactive calls.

T2 sequence (Q9UBE0 whole entry): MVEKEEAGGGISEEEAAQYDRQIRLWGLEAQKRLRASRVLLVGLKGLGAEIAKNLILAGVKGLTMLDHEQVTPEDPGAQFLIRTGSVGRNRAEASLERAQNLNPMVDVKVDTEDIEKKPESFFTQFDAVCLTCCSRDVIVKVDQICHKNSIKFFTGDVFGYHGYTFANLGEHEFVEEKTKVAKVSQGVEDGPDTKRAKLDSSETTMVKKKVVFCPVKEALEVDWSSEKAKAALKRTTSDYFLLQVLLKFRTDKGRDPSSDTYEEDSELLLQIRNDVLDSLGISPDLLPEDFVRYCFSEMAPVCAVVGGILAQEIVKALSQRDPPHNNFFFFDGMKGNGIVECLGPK
T2 sequence (Q9UBT2 whole entry): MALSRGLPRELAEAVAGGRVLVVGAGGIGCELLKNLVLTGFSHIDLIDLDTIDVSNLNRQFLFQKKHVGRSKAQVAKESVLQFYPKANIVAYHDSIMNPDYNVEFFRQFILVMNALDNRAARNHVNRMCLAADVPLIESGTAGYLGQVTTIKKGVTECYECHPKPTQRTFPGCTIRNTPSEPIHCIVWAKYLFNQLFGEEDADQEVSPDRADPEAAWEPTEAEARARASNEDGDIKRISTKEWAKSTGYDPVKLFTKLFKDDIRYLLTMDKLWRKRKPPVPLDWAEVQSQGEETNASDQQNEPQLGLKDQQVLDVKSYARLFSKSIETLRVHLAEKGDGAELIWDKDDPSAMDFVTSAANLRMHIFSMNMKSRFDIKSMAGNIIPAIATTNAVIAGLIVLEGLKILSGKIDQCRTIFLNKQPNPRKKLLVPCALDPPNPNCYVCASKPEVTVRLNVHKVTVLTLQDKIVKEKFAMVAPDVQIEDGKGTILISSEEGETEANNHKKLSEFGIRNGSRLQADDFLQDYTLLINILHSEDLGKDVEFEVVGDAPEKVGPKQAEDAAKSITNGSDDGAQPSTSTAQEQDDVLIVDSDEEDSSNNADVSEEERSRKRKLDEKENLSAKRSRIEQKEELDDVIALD
Mu-type opioid receptor, sequence (P35372 whole entry): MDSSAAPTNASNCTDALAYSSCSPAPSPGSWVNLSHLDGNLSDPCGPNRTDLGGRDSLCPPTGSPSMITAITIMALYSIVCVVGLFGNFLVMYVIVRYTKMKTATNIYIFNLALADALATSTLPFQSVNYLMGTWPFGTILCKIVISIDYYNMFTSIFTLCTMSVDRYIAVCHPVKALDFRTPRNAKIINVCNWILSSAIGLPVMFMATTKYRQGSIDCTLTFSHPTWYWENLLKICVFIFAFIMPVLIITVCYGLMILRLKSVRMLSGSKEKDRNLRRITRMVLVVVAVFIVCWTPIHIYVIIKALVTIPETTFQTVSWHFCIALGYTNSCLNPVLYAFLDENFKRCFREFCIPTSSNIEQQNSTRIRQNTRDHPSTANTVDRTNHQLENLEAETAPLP

On to `Cc1cccc(OCCCN2C(=O)C(=O)c3cc(C)ccc32)c1`, for which the EC50 was 11.1 µM (inconclusive) in the assay with BJ [1], > 150 µM (not active) in the assay on BJ [2], 5.08 µM (active) in the assay with BJ [3] and 25.9 µM (active) in assay [4]. Besides, the AC50 was 2.77 µM (active) on CAAX prenyl protease 2 and 42.4 µM (active) in assay [5].

Turning to `FC(F)(F)c1cc(CSc2nnc(-c3ccccn3)n2Cc2ccco2)ccc1Cl`, the EC50 at Mu-type opioid receptor was > 32 µM (inactive); in assay [6] it was > 64 µM (inactive); in assay [7], 0.456 µM (active); in assay [8], 0.504 µM (active).

Consider `COc1cccc2c(SCC(=O)N/N=C/c3ccc(O)cc3O)cc(C)nc12`, for which the results for the IC50 at SUMO-activating enzyme [9] and at SUMO-activating enzyme [10] were 3.17 µM (active) and 28.6 µM (active), respectively.

As to `COc1ccc2cc1Oc1ccc(cc1)C[C@H]1c3c(cc(OC)c4c3Oc3c(ccc5c3[C@H](C2)N(C)CC5)O4)CCN1C`, the IC50 is 12.2 µM (active) in assay [11], 16 µM (active) in [13] and > 20 µM (inactive) on Bcl-2-related protein A1. The CC50 in assay [12] was 6.25 µM (active). For the same compound, the AC50 was 3.56 µM (active) in assay [14] and 8.02 µM (active) in the assay on INS1.
